We go through 2 molecules from patent publication US5798372A, “Method for preventing onset of restenosis after angioplasty employing a retinoid” (Allergan, priority 1997, dated 1998).

pIC50: −log10 of the molar value.

In data set [1] the test system is endothelial cells (canine aorta). Put plainly: Serum (1%)-induced endothelial cell proliferation, 3H-thymidine incorporation. Format: cell-based. Conditions: serum induced; for pIC50: Canis lupus familiaris, Endothelial cell. The method, then: (§1) The effect of 1% serum on DNA synthesis by endothelial or smooth muscle cells using ^3 H-thymidine incorporation was measured. For measuring the effectiveness of retinoids in inhibiting endothelial or smooth muscle cell proliferation induced by certain mitogens, i.e., serotonin or β-FGF the indicated concentrations were added to the media instead of 1% serum. Primary cells isolated from canine aorta were used for these studies. Unlike the typical cell lines (e.g. NIH 3T3 cells, etc.) 6-7 weeks are required to isolate and grow these primary cells in sufficient number to perform a single experiment. For the following studies, the primary cells (passages 2-4) were plated on 35×10 mm tissue culture dishes in 10% fetal bovine serum (FBS) and incubated. After 72 hours of growth the medias was replaced with 0.1% FBS for synchronization and incubated for additional 72 hours. Then 1% serum was added and incubated for 20 hours followed by the addition of 1μCi of ^3 H-thymidine. Four hours after the addition of 3H-thymidine the DNA was precipitated and the amount of ^3 H-thymidine incorporated was measured. This value is reported as the serum or serotonin or β-FGF stimulated value for cellular proliferation and is expressed as a percentage of baseline ^3 H-thymidine incorporation.
(§2) To examine the antiproliferative effect of retinoids, they were dissolved in 100% ethanol and then added at the indicated final concentrations. The compounds were added at the time of adding 1% serum or serotonin or β-FGF to stimulate the cells. (The maximal final concentration of ethanol in culture media was 1% which is non-cytotoxic to endothelial or smooth muscle cells). After 20 hours of incubation with retinoids and 1% serum or serotonin or β-FGF, the ^3 H-thymidine incorporation was measured.
(§3) In this experimental dosages ranging between 0.01 and 100 μM were evaluated for the effect of AGN 191183 on cell growth.
(§4) The other retinoids, disclosed above, were also tested for their effect on smooth muscle and endothelial cell growth at the same dosages as for AGN 191183. Table 2 reports the ED50 for each of these retinoids.

Data set [2] has the same test system. Nature of the data set: β-FGF-induced endothelial cell proliferation, 3H-thymidine incorporation. Format: cell-based. Conditions: Canis lupus familiaris, Table 3, read-out: ED50 FOR ENDOTHELIAL Cells, β-FGF. The protocol:
as §1
(§5) To examine the antiproliferative effect of retinoids, they were dissolved in 100% ethanol and then added at the indicated final concentrations. The compounds were added at the time of adding 1% serum or serotonin or β-FGF to stimulate the cells. […] After 20 hours of incubation with retinoids and 1% serum or serotonin or β-FGF, the ^3 H-thymidine incorporation was measured.
(§6) Certain of the retinoids were then tested for mitogen-induced cellular proliferation, utilizing serotonin (5HT) and β-FGF as such mitogens. In this testing, as reported in Table 3, below, the same dosages were evaluated for their effect on mitogen-induced cellular proliferation (The results are reported as ED50 and compared to the ED50 for serum-induced smooth muscle and endothelial cell growth).

The test system is the same in data set [3]. Nature of the data set: Serotonin-induced endothelial cell proliferation, 3H-thymidine incorporation. Conditions: Canis lupus familiaris, Table 3, read-out: ED50 FOR ENDOTHELIAL Cells, Serotonin. It counts as cell-based. The method, then: as §1, §5, §6
Data set [4] relates to cellular proliferation at the site of vascular injury (balloon angioplasty). Nature of the data set: Rabbit model of angioplasty-induced arterial injury, in vivo 3H-thymidine incorporation. Details: species or system New Zealand white rabbits. As to conditions: 10 mg/kg IP daily. The source says:
There has been interest in attempting to reduce the incidence of restenosis by minimizing the trauma of angioplasty. […] However, a similar relationship between the degree of injury and restenosis has not been documented with conventional balloon angioplasty. In order to better characterize the time course and degree of cellular proliferation resulting from vascular injury, the effect of retinoids on the in vivo incorporation of 3H-thymidine in a rabbit model of arterial injury was studied. Varying degrees of injury were produced including both simple de-endothelialization of the intima as well as stretch injury of the vessel by conventional angioplasty.
3.0-3.5 kg male, New Zealand white rabbits underwent standardized femoral artery injury. Arterial access was obtained through the right carotid artery which was ligated after the procedure. Heparin (100 U/kg IV) was given once arterial access was obtained. Injury was accomplished by the following method:
1. […]
Arterial specimens were then thawed and stripped of all adventitia. […] The samples were neutralized with 0.5N HCl and counted using multisol scintillation fluid.
Using the above described model of angioplasty induced restenosis it was determined whether chronic treatment with all trans retinoic acid can attenuate the cellular proliferation of the site of vascular injury. […]

Data set [5] has as its system smooth muscle cells (canine aorta). Nature of the data set: Serum (1%)-induced smooth muscle cell proliferation, 3H-thymidine incorporation. It counts as cell-based. Conditions: Canis lupus familiaris, serum induced. The method, then: as §1, §2, §3, §4
Data set [6] shares this test system. Put plainly: Serotonin-induced smooth muscle cell proliferation, 3H-thymidine incorporation. Format: cell-based. As to conditions: Canis lupus familiaris, Table 3, read-out: ED50 FOR SMOOTH MUSCLE CELLS, Serotonin. The method, then:
as §1, §5, §6

Data set [7] shares this test system. Nature of the data set: β-FGF-induced smooth muscle cell proliferation, 3H-thymidine incorporation. Format: cell-based. Conditions: Canis lupus familiaris, Table 3, read-out: ED50 FOR SMOOTH MUSCLE CELLS, β-FGF. The method, then: as §1, §5, §6
Setting [8] is: Table 3, read-out: ED50 FOR SMOOTH MUSCLE CELLS, Serum.

`CC1=C(/C=C/C(C)=C/C=C/C(C)=C/C(=O)O)C(C)(C)CCC1` [AGN 100335, (E)-3,7-dimethyl-9-(2,6,6-trimethyl-1-cyclohexen-1-yl)-2,4,6,8-nonatetraenoic acid]: the pIC50 is 4.55 in data set [1] (Table 3, read-out: ED50 FOR ENDOTHELIAL Cells, Serum); 8.05 in data set [2]; 7.60 in data set [3]; 4.45 in data set [5] (setting [8]); 7.33 in data set [6]; less than 4.00 in data set [7]. For the same molecule, the “animals receiving retinoic acid that died before the study was completed” value in data set [4] is given as 2 out of 4. Moreover, in data set [4] (6 days pretreatment and days 7-9, very small number of animals), the “inhibition of cellular proliferation following angioplasty” value is recorded as “appeared to inhibit the development of cellular proliferation following angioplasty”.
Take `CC1=C(/C=C/C(C)=C\C=C\C(C)=C\C(=O)O)C(C)(C)CCC1` [AGN 192013, (2E,4E,6Z,8E)-3,7-dimethyl-9-(2,6,6-trimethyl-1-cyclohexen-1-yl)-2,4,6,8-nonatetraenoic acid, reference compound]: the pIC50 is 5.65 in data set [1] (Table 2, read-out: ED50 FOR ENDOTHELIAL CELL (concentration at which proliferation is inhibited by 50%)); 4.58 in data set [2]; 6.80 in data set [3]; less than 4.00 in data set [5] (Table 2, read-out: ED50 FOR SMOOTH MUSCLE CELLS (concentration at which proliferation is inhibited by 50%)); less than 4.00 in data set [5] (setting [8]); 6.39 in data set [6]. Besides, the pIC50 in data set [7] is less than 4.00. For the same molecule, the “order of potency for endothelial cells” value in data set [1] (from Table 2) is “AGN 192013>AGN 190205=AGN 191183”.
